Assay results: patent US20020137023A1, “Methods and compositions for targeting compounds to muscle” (Auburn University, priority 1997, published 2002)

How the values were obtained:
Test in all cases: in vivo phage display selection, frequency of selected clone
cardiac muscle [1] = test system: cardiac muscle; design: species or system dog; conditions: for FREQUENCY (of selected phage clone among clones sequenced): 3 in vivo rounds in cardiac muscle, dog
Method: (§1) In round one of selection, the phage library is injected intravenously and multiple tissues may be recovered. In subsequent rounds, the phage purified from specific tissues recovered in round one is injected intravenously, and thus, only that tissue is recovered. In rounds 2-4, separate animals are needed for each tissue being examined. After the last round, the phages are plated on a lawn of bacteria and a number of phage plaques are isolated and the DNA sequenced. Of these a certain percentage will represent the dominant selected clone. FIG. 2 provides a scheme for selection of tissue specific phage.
(§2) In the Table, “Four rounds of selection . . . ,” means that in round 1, the phage library was injected intravenously, and a specific tissue was recovered. In round 1, multiple tissues are recovered from one animal (skeletal muscle, cardiac muscle, etc.). In any subsequent round, the phage purified from a specific tissue is injected intravenously, and only that tissue is recovered. Thus, in rounds 2-4, separate animals are needed for each tissue being examined. After the last round, the phage are plated on a lawn of bacteria and a number of phage plaques are isolated and the DNA sequenced. This is represented in the Table by “number of phage clones sequenced.” Of these, a certain percentage will represent the dominant selected clone.
(§3) The experiments disclosed herein, represent the first in vivo selection in any species other than mouse. Generally, phage was left to circulate for one hour.

skeletal muscle = test system: skeletal muscle
Method: as §1, §2, §3

neuro muscular tissue = conditions: 4 in vivo rounds in neural muscular tissue; mouse
Method: as §1, §2, §3

murine muscle = test system: murine muscle; design: species or system mouse; conditions: four rounds in vivo
Method: as §1
In the Table, “Four rounds of selection . . . ,” means that in round 1, the phage library was injected intravenously, and a specific tissue was recovered. In round 1, multiple tissues are recovered from one animal (skeletal muscle, cardiac muscle, etc.). In any subsequent round, the phage purified from a specific tissue is injected intravenously, and only that tissue is recovered. Thus, in rounds 2-4, separate animals are needed for each tissue being examined. After the last round, the phage are plated on a lawn of bacteria and a number of phage plaques are isolated and the DNA sequenced. This is represented in the Table by “number of phage clones sequenced.” Of these, a certain percentage will represent the dominant selected clone. […]

cardiac muscle [2] = conditions: mouse
Method: as §1, §2, §3

[3] = 4 in vivo rounds in skeletal muscle, mouse
[4] = 4 in vivo rounds in cardiac muscle

With “APVHRPL (Phage display library peptides) [peptide selected via two rounds in vivo, in canine cardiac muscle]” as the substance, how does the “fraction in which the selected clone was found” value (cardiac muscle [1]; two rounds in vivo, in canine cardiac muscle) read?
Its value is “found in the washed tissue fraction”.

“ASSLNIA (Phage display library peptides) [Ala-Ser-Ser-Leu-Asn-Ile-Ala]” was tested. Which “FREQUENCY (of selected phage clone among clones sequenced)” value (skeletal muscle; 3 in vitro rounds on C2C12 myotubes followed by 2 in vivo rounds on skeletal muscle, mouse) did it give?
The value was 40%.

With “CGHHPVYAC (Phage display library peptides) [Cys-Gly-His-His-Pro-Val-Tyr-Ala-Cys]” as the substance, how does the “FREQUENCY (of selected phage clone among clones sequenced)” value (cardiac muscle [1]) read?
Its value is 20%.

And the “FREQUENCY (of selected phage clone among clones sequenced)” value (skeletal muscle; tissue skeletal muscle, dog)?
Its value is 100%.

Which results are given for “GETRAPL (Phage display library peptides) [Gly-Glu-Thr-Arg-Ala-Pro-Leu]”?
FREQUENCY (of selected phage clone among clones sequenced) (skeletal muscle; [3]): 37%; FREQUENCY (of selected phage clone among clones sequenced) (neuro muscular tissue): 12%

How did the “frequency of selected clone” value (murine muscle) turn out when “HAIYPRH (Phage display library peptides) [peptide selected via four rounds in vivo, in murine muscle]” was run?
The value was 4%.

Which “FREQUENCY (of selected phage clone among clones sequenced)” value (cardiac muscle [2]; [4]) does the source give for “HVHTLPT (Phage display library peptides) [His-Val-His-Thr-Leu-Pro-Thr]” here?
The value was 11%.

How did the “FREQUENCY (of selected phage clone among clones sequenced)” value (cardiac muscle [1]) turn out when “KAPLTPV (Phage display library peptides) [peptide selected by 3 in vivo phage rounds in dog cardiac muscle]” was run?
The value was 8%.

How did the “FREQUENCY (of selected phage clone among clones sequenced)” value (cardiac muscle [2]; [4]) turn out when “MHHTRFY (Phage display library peptides) [Met-His-His-Thr-Arg-Phe-Tyr]” was run?
Its value is 8%.

How did the “FREQUENCY (of selected phage clone among clones sequenced)” value (cardiac muscle [2]; 3 in vivo rounds in cardiac muscle) turn out when “QWHGPLH (Phage display library peptides) [Gln-Trp-His-Gly-Pro-Leu-His]” was run?
The value was 20%.

For “SGTLFAN (Phage display library peptides) [peptide selected by 3 in vivo phage rounds in dog cardiac muscle]”, which “FREQUENCY (of selected phage clone among clones sequenced)” value (cardiac muscle [1]) is on record?
Its value is 28%.

With “WDANGKT (Phage display library peptides) [Trp-Asp-Ala-Asn-Gly-Lys-Thr]” as the substance, how does the “FREQUENCY (of selected phage clone among clones sequenced)” value (skeletal muscle; 2 in vitro on C2C12 myotubes followed by 2 in vivo rounds on skeletal muscle, mouse + dog) read?
Its value is 10%.

And the “FREQUENCY (of selected phage clone among clones sequenced)” value (skeletal muscle; [3])?
The value was 19%.
